Reference: paper PMC11879692, “PDE4 inhibitor rolipram represses hedgehog signaling via ubiquitin-mediated proteolysis of GLI transcription factors to regress breast cancer” (The Journal of Biological Chemistry, 2025)

How the values were obtained:
[1] = Serum biochemical parameters (kidney and liver function) of tumor-induced mice; type: in vivo, BALB/c mice; settings: mean ± SD (n = 3); for Kidney function Creatinine: Tumor 0.93 ± 0.15, Normal 0.32 ± 0.06; for Liver function Albumin: Tumor 3.56 ± 0.25, Normal 2.36 ± 0.15; for Liver function Protein: Tumor 4.93 ± 0.15, Normal 5.16 ± 0.20; for Kidney function Urea: Tumor 36.89 ± 3.43, Normal 17.30 ± 2.25
Experimental: Solid tumors were developed in BALB/c mice (n = 3) except the control group (group I) by injecting 1 × 10^4 viable 4T1 (RRID: CVCL_0125) mice breast carcinoma cells (resuspended in 50 μl of PBS) into the inguinal fourth mammary fat pad, and the tumor was allowed to develop for 14 days ([37], [38]). Mice were randomly divided into three groups, viz., untreated tumor (group II), mice treated intraperitoneally with 1 mg//kg bodyweight of rolipram (group III), and mice receiving 5 mg/kg bodyweight of rolipram, intraperitoneally (group IV) ([39], [40]). After 14 days, the mice were sacrificed. Lung, kidney, liver, serum, and the tumors were collected for further experiments ([15]).
The total protein in mouse serum was measured by biuret method, which relies on formation of reddish-violet color in alkaline copper solution ([46]). The absorptivity of the colored solution was measured at 570 nm and compared with known protein standards to determine the level of total protein in the serum. The serum urea level of mouse was determined using urea kit (Coral Clinical Systems; catalog no.: 1102240075), which relies on the reaction of phenolic chromogen and hypochlorite with the ammonia formed from urea ([47]). The absorbance of the test sample (AbsT) and standard sample (AbsS) was recorded at 570 nm, and the concentration of urea was determined by the formula urea (mg/dl) = (AbsT/AbsS) × 40, according to the manufacturer’s protocol. Level of serum creatinine was measured using creatinine kit (Coral Clinical Systems; catalog no.: 1101060035). Briefly, this kit utilizes the formation of a colored complex because of reaction between alkaline picric acid solution and creatinine ([48]). The initial absorbance of the test sample (Abs1T) and standard sample (Abs1S) was measured at 520 nm after 30 s of incubation, and the final absorbance of the test sample (Abs2T) and standard sample (Abs2S) was measured exactly after 60 s. The formula, creatinine (mg/dl) = (Abs2T – Abs1T)/(Abs2S – Abs1S) × 2, was used to determine the concentration of creatinine. Activities of AST and ALT were evaluated from the serum of mice using AST assay kit (catalog no.: MAK055) and ALT assay kit (catalog no.: MAK052) from Sigma–Aldrich, following the manufacturer’s protocol. The estimation of AST activity is based on the production of glutamate by the activity of AST present in the serum samples. The absorbance of the colored product was measured at 450 nm and compared with known standard samples to determine the activity ([49]). Similarly, the ALT assay kit is based on the production of pyruvate in the presence of ALT in serum. The activity of the ALT in mouse serum was determined by measuring the absorbance of the colored product at 570 nm and comparing with the known standard samples ([50]). All the spectrophotometric analyses were carried out in Bio-Rad iMark Microplate Reader (RRID: SCR_023799).

[2] = test system: intracellular cAMP in MCF-7 cells; experiment: cAMP assay (ELISA-based kit), intracellular cAMP; type: cell-based, human; settings: 24 h, untreated control 14.1 pmol/ml
Experimental: (§1) To determine the intracellular level of cAMP, a […] ELISA-based cAMP assay kit was used, which relies on preparation of a standard curve for cAMP (pmol/ml) and denoting all the experimental values from the standard curve, and finally expressing as mean values with standard errors of triplicate samples per treatment group. The assay kit was obtained from Cayman Chemicals (item no.: 581001), and the assay was performed following the manufacturer’s protocol after washing the cells with 1X PBS (composition: 137 mM NaCl, 2.7 mM KCl, 10 mM Na2HPO4, and 1.8 mM KH2PO4) and treating with 0.1 M HCl for 20 min and sonicating the cells for lysis. In brief, the cell lysate was added to the 96-well plate precoated with mouse monoclonal anti-rabbit IgG and which also contained cAMP–acetylcholinesterase (cAMP tracer) that competes with the free cAMP in the cell lysate to bind to the cAMP-specific rabbit antibody. Following several washes, the absorbance of the color generated because of addition of acetylcholinesterase substrate is measured at 412 nm by Bio-Rad iMark Microplate Reader (RRID: SCR_023799), which is inversely proportional to the amount of free cAMP present in the cell lysate ([29]).

[3] = test system: intracellular cAMP in MDA-MB-231 cells; experiment: cAMP assay (ELISA-based kit), intracellular cAMP; type: cell-based, human; settings: 24 h, untreated 12.55 pmol/ml
Experimental: as §1

[4] = test system: GLI2 and GLI3 in MCF-7 cells; experiment: Ubiquitination of GLI2 and GLI3 (HA-Ub transfection, immunoprecipitation, anti-HA blot); type: cell-based, human
Experimental: (§2) HA-Ubiquitin plasmid (Addgene; catalog no.: plasmid #18712, RRID: Addgene_18712) was transfected into MCF-7 and MDA-MB-231 cells using X-tremeGENE HP DNA Transfection Reagent (Roche; catalog no.: XTGHP-RO). Proteins were extracted from the untreated control cells and cells treated with rolipram for 24 h and were immunoprecipitated using antibodies raised against GLI2 and GLI3. The immunoprecipitation involved overnight incubation of protein and antibodies in Pierce Protein A/G Agarose (Thermo Scientific; catalog no.: 20421) at 4°C. Following immunoprecipitation, the precipitate was subjected to Western blot analysis using anti-HA antibodies (Cell Signaling Technology; catalog no.: 2367; RRID: AB_10691311) to observe ubiquitination of the desired proteins. Cells were cotreated with MG-132 (Sigma–Aldrich; catalog no.: M7449), a proteosomal blocker for ascertaining ubiquitination ([35]).

[5] = test system: GLI2 and GLI3 in MDA-MB-231 cells; experiment: as above; type: cell-based, human
Experimental: as §2

COc1ccc(C2CNC(=O)C2)cc1OC1CCCC1 (stereo not drawn) [rolipram, Rolipram]
Kidney function Creatinine ([1]; Tumor + 1 mg/kg): 0.45 ± 0.08 mg/dL
Liver function Albumin ([1]; Tumor + 1 mg/kg): 2.73 ± 0.15 g/dL
Liver function Protein ([1]; Tumor + 1 mg/kg): 5.30 ± 0.10 g/dL
Kidney function Urea ([1]; Tumor + 1 mg/kg): 20.39 ± 3.06 mg/dL
Liver function AST ([1]; Tumor + 1 mg/kg, Tumor 135.85 ± 11.7, Normal 85.23 ± 7.97): 119.69 ± 10.1 U/L
Kidney function Creatinine ([1]; Tumor + 5 mg/kg): 0.50 ± 0.05 mg/dL
Liver function Albumin ([1]; Tumor + 5 mg/kg): 2.66 ± 0.05 g/dL
Liver function Protein ([1]; Tumor + 5 mg/kg): 4.90 ± 0.20 g/dL
Kidney function Urea ([1]; Tumor + 5 mg/kg): 22.08 ± 2.34 mg/dL
Liver function ALT ([1]; Tumor + 5 mg/kg, Tumor 55.77 ± 2.38, Normal 43.31 ± 0.88): 55.69 ± 4.97 U/L
intracellular cAMP level ([2]; MCF-7, IC50 dose): 43.12 pmol/mL
intracellular cAMP level ([2]; MCF-7, half IC50 dose): 24.02 pmol/mL
intracellular cAMP level ([3]; MDA-MB-231, IC50 dose): 37.41 pmol/mL
intracellular cAMP level ([3]; MDA-MB-231, half IC50 dose): 28.35 pmol/mL
ubiquitination of GLI2 and GLI3 ([4]; MCF-7, IC50 dose, 6 h to 24 h): significant ubiquitination
ubiquitination of GLI2 and GLI3 ([4]; MCF-7, in the presence of H89): not able to induce ubiquitination
ubiquitination of GLI2 and GLI3 ([5]; MDA-MB-231, IC50 dose): ubiquitination of both proteins was also observed
ubiquitination of GLI2 and GLI3 ([5]; MDA-MB-231, in the presence of H89): not able to induce ubiquitination
